Laboratory results reported in patent US9586999B2, “Methods and compositions related to improving properties of pharmacological agents targeting nervous system” (University of Utah Research Foundation, priority 2006, dated 2017).
“Also recorded” adds a separate entry of the source.

Key:
[1] = system: formalin-induced paw licking; experiment: Mouse formalin test of inflammatory pain; assay type: in vivo
Experimental: An injection of 0.5% formalin is made into the planter region of a mouse right hind paw. This elicits a distinct biphasic behavioral profile characterized by the mouse licking the affected paw. Immediately following the injection the mouse licks the paw for about 10 minutes. This is phase 1 (acute) and is followed by a brief latent period where there is little behavioral activity. A more prolonged period of about 20 to 30 minutes of paw licking ensues which constitutes phase 2 (inflammatory).
Prior to the administration of the active peptide, drug or vehicle each mouse undergoes a 15-minute conditioning period in one of several 6″ tall plexiglass observation tubes (4″ diameter) that are placed in front of a mirror. […] One hour after treatment, formalin was injected sub-dermally (20 μl; 27 gauge needle) into the plantar surface of the right hind foot. The bevel of the needle is placed facing down toward the skin surface. Following the injection of the formalin each animal is observed for first 2 minutes of each 5 minute epoch for a total of 45 minutes. The cumulative length of licking for each 2 minute time period was measured. An animal receiving the requisite volume of vehicle was alternated with each mouse given GAL-BBB2, Gal 1-16, or gabapentin. Animals were euthanized following the conclusion of the experiment.
Area under the curve (AUC) determination was made using the GraphPad Prism Version 3.03. Total AUC is calculated for both the test and control groups for both the acute and inflammatory phases. The AUC for individual animals for each phase is also calculated and converted to percentage of total AUC of control. The average percentages and SEM for both the drug treated and control were calculated and tested for significant difference.

mechanical allodynia = experiment: Sciatic nerve ligation model of chronic pain, mechanical allodynia (Von Frey); assay type: in vivo, rat; settings: 2 mg/kg i.p.
Experimental: Just prior to surgery, rats are treated subcutaneously with 0.1 to 0.5 mg/kg of the long acting opiate buprenorphine. Rats are then anesthetized with pentobarbital and the depth of anesthesia monitored by their response to a tail pinch and observation of the depth of respiration. Sterile technique was used throughout the surgery.
The upper thigh of each rat was shaved and wiped off with ethanol and betadine. A small incision was made in the skin and through the underlying muscle of the upper thigh until the sciatic nerve was exposed. The nerve was then separated from the surrounding connective tissue and slightly elevated by a pair of fine, curved forceps. Approximately ⅓ to ½ of the nerve was then tied off by passing a needle and nylon suture (7.0) through the nerve. […] Rats were closely monitored daily for the development of infection or untoward effects of the surgery.
After an appropriate time for recovery (e.g., 7-14 days) the animals were tested for the development of mechanical allodynia (pain response to a non-noxious stimulus). […] After a 30-60 minute acclimation period, a baseline mechanical sensitivity was determined. […] This procedure was repeated until a 50% threshold for withdrawal could be determined.

6 Hz limbic seizures = experiment: 6 Hz limbic (psychomotor) seizure test; assay type: in vivo, mouse
Source text: Mice not displaying limbic seizures were considered protected.
As mentioned above, the 6 Hz seizure becomes more resistant to block by antiepileptic drugs as the current is increased from 22 mA to 44 mA.

[2] = system: tonic-extension (maximal electroshock) seizures; experiment: Maximal electroshock seizure (MES) test; assay type: in vivo, mouse; settings: 4 mg/kg i.p., tested one hour later
Source text: Abolition of the hindleg tonic extensor component of the seizure is used as the endpoint.

sound-induced seizures = experiment: Frings audiogenic seizure-susceptible mouse model of reflex epilepsy; assay type: in vivo; settings: i.p., 4 mg/kg for time course, dose-response 1 h after dosing
Source text: (§1) The ability of individual modified peptides to prevent seizures induced by sound in the AGS-susceptible Frings mouse model can be assessed at the time of peak effect (White et al., 1992). For this test, individual mice are placed into a plexiglass cylinder (diameter, 15 cm; height, 18 cm) fitted with an audio transducer (Model AS-ZC; FET Research and Development, Salt Lake City, Utah), and exposed to a sound stimulus of 110 decibels (11 KHz) delivered for 20 seconds. Sound-induced seizures are characterized by wild running followed by loss of righting reflex with forelimb and hindlimb tonic extension. Mice not displaying hindlimb tonic extension are considered protected.
The two modified galanin analogs (GAL-BBB1 and GAL-BBB2) were administered i.p. to a group of Frings audiogenic seizure susceptible mice in a dose of 4 mg/kg. At various times after administration (i.e., 15, 30, 60, 120, and 240 min) each mouse was placed into a cylindrical test chamber fitted with an audio transducer and challenged with a high-intensity sound stimulus (110 dB, 11 KHz for 20 sec). Animals not displaying tonic hind-limb extension were considered protected. […] In a subsequent study, anticonvulsant efficacy was quantitated at the time to peak effect (i.e., 1 h) in a dose-response study.
as §1, with “analogs” for “peptides”
At various times after administration (i.e., 15, 30, 60, 120, and 240 min) each mouse was placed into a cylindrical test chamber fitted with an audio transducer and challenged with a high-intensity sound stimulus (110 dB, 11 KHz for 20 sec).

[3] = system: hippocampal kindled seizures; experiment: Hippocampal kindled rat model of partial epilepsy; assay type: in vivo; settings: i.p.; decreased from 5

Sar-Trp-Thr-Leu-Asn-Ser-Ala-Gly-Tyr-Leu-Leu-Gly-Pro-Lys-Lys-(Lys-palm)-Lys-NH2 [NAX 5055]
effect compared with gabapentin ([1]; 5 mg/kg): equivalent to a 10 mg/kg dose of gabapentin | paw licking, acute and inflammatory phase ([1]; 0.52-5 mg/kg i.p., 1 h before formalin): dose-dependent reduction in paw licking | phase II response at the active dose ([1]; mouse formalin assay): (“flat phase II”) | Active at ([1]; mouse formalin assay of inflammatory pain): 5 mg/kg | potency in mouse formalin assay ([1]; mouse, in vivo): potent | threshold for mechanical allodynia (mechanical allodynia; 30 min to 6 h): time-dependent increase in the threshold for mechanical allodynia | potency relative to morphine (2 mg/kg) and gabapentin (40 mg/kg) (mechanical allodynia; listed as GAL-BBB2): equi-potent to morphine; also recorded: several fold more potent that gabapentin | activity in pharmaco-resistant seizure model (6 Hz limbic seizures; 4 mg/kg): active | potency and efficacy relative to native peptide fragment (6 Hz limbic seizures; 6 Hz (32 mA), i.c.v.): more potent and efficacious than the native peptide fragment GAL(1-16) | % Protection at 2 hours afforded by a dose of 4 mg/kg, i.p. (6 Hz limbic seizures; 2 h, 4 mg/kg i.p.): 100% | % Protection at 4 hours afforded by a dose of 4 mg/kg, i.p. (6 Hz limbic seizures; 4 h, 4 mg/kg i.p.): 0% | ED50 in the 6 Hz limbic seizure model (in Table 14 in parentheses) (6 Hz limbic seizures; i.p., SAR analogs): (0.8 mg/kg) | ED50 following i.c.v. administration (6 Hz limbic seizures; intracerebroventricular, 6 Hz (32 mA)): 0.07 nmol | anticonvulsant activity following subcutaneous administration (6 Hz limbic seizures; s.c., 32 mA, 60 min, CF-1 mice): preserved; also recorded: retained | activity in maximal electroshock seizure test [2]: completely inactive | anticonvulsant effect against sound-induced seizures (sound-induced seizures; 4 mg/kg): effective; also recorded: time-dependent anticonvulsant activity; also recorded: dose-dependent protection | anticonvulsant effect against sound-induced seizures (sound-induced seizures; listed as GAL-BBB2, 4 mg/kg): dose-dependent effect | anticonvulsant effect against sound-induced seizures (sound-induced seizures; listed as Gal BBB-2, 4 mg/kg): time (inset) and dose-dependent protection | seizure score [3]: 3
